In the supplement of paper PMC10307832:

How the values were obtained:
Test in all cases: relative viability (nuclei count vs DMSO), 5 days (fraction); higher = more cells survive
[1] = compound: C1CSC2=C(C(=O)N1)SC3=C2C=C(C=C3)O [kb NB 142-70] + O=C(CCCCCCC(=O)Nc1ccccc1)NO [Vorinostat] (partner 1 µM)
How it was run: (§1)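 Values are medians from duplicate plates. Each reflects relative viability, defined as the nuclei count of treated wells over that of vehicle wells. Lung cancer cell lines in 1536-well plates were pin-tool dosed one day after seeding with one drug alone or with a fixed anchor-drug dose plus five library-drug doses (not always all listed) in √10 steps, then fixed, stained and imaged at 4× after 5 days.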

[2] = compound: NCC(=O)Nc1ccc(-n2nc(C(F)(F)F)cc2-c2ccc3c(ccc4ccccc43)c2)cc1 + CC1(C)CCC(c2ccc(Cl)cc2)=C(CN2CCN(c3ccc(C(=O)NS(=O)(=O)c4ccc(N[C@H](CCN5CCOCC5)CSc5ccccc5)c(S(=O)(=O)C(F)(F)F)c4)cc3)CC2)C1 [Navitoclax] (partner 0.5 µM)
How it was run: as §1

[3] = compound: C1CSC2=C(C(=O)N1)SC3=C2C=C(C=C3)O [kb NB 142-70] + Nc1ncn([C@H]2C[C@H](O)[C@@H](CO)O2)c(=O)n1 [Decitabine] (partner 2 µM)
How it was run: as §1

[4] = compound: NCC(=O)Nc1ccc(-n2nc(C(F)(F)F)cc2-c2ccc3c(ccc4ccccc43)c2)cc1 + Nc1ncn([C@H]2C[C@H](O)[C@@H](CO)O2)c(=O)n1 [Decitabine] (partner 2 µM)
How it was run: as §1

kb NB 142-70 + Foretinib = compound: C1CSC2=C(C(=O)N1)SC3=C2C=C(C=C3)O [kb NB 142-70] + COc1cc2c(Oc3ccc(NC(=O)C4(C(=O)Nc5ccc(F)cc5)CC4)cc3F)ccnc2cc1OCCCN1CCOCC1 [Foretinib] (partner 0.25 µM)
How it was run: as §1

Cell Line	relative viability ([1]; first compound 0.1 µM)	relative viability ([1]; first compound 1 µM)	relative viability ([1]; first compound 3.162 µM)	relative viability ([2]; first compound 0.02 µM)	relative viability ([2]; first compound 0.06325 µM)	relative viability ([2]; first compound 0.2 µM)	relative viability ([2]; first compound 0.6325 µM)	relative viability ([2]; first compound 2 µM)	relative viability ([3]; first compound 0.1 µM)	relative viability ([3]; first compound 1 µM)	relative viability ([3]; first compound 3.162 µM)	relative viability ([4]; first compound 0.02 µM)	relative viability ([4]; first compound 0.06325 µM)	relative viability ([4]; first compound 0.2 µM)	relative viability ([4]; first compound 0.6325 µM)	relative viability ([4]; first compound 2 µM)	relative viability (kb NB 142-70 + Foretinib; first compound 0.1 µM)	relative viability (kb NB 142-70 + Foretinib; first compound 1 µM)	relative viability (kb NB 142-70 + Foretinib; first compound 3.162 µM)
201T	0.943	1.02	1.06	1.26	1.18	1.24	1.25	1.22	0.892	0.867	0.825	0.838	0.846	0.901	0.87	0.846	1.07	1.17	1.08
A549	–	–	–	1.24	1.19	1.24	1.17	0.7	0.24	0.245	0.233	0.263	0.249	0.2	0.257	0.31	0.997	0.95	0.563
A-427	0.864	0.969	0.932	0.798	0.956	0.972	0.95	0.959	0.579	0.568	0.55	0.502	0.544	0.583	0.545	0.57	1.14	1.25	0.929
ABC-1	1.13	0.975	0.453	–	–	–	–	–	1.05	0.69	0.776	0.917	1.02	–	0.954	1.13	1.11	0.979	0.677
BEN	0.553	0.585	0.573	0.0632	0.0631	0.0469	0.0862	0.0668	0.776	0.741	0.588	0.69	0.669	0.7	0.709	0.77	0.535	0.648	0.486
CAL-12T	0.767	0.663	0.564	1.17	1.19	1.37	1.2	1.34	–	–	–	–	–	–	–	–	1.03	1.18	0.837
COR-L23	0.515	0.428	0.214	1.1	0.935	1.01	1.07	1	0.409	0.465	0.246	0.437	0.434	0.475	0.413	0.309	1.06	1.04	0.457
COR-L 105	0.812	0.831	0.776	0.817	0.947	0.649	0.841	0.703	0.68	0.576	0.589	0.726	0.588	0.698	0.635	0.653	1.11	1.03	1
Calu-6	–	–	–	0.885	0.812	1.09	0.844	0.878	–	–	–	–	–	–	–	–	0.809	0.896	0.54
ChaGo-K-1	0.815	0.813	0.7	0.931	1.06	0.636	0.939	1.19	0.509	0.515	0.461	0.55	0.526	0.506	0.522	0.549	0.89	0.967	0.862
EBC-1	–	–	–	0.451	0.427	0.554	0.456	0.435	–	–	–	–	–	–	–	–	0.0986	0.12	0.0991
EKVX	0.677	0.481	0.814	0.902	0.969	1.07	0.971	1.03	0.369	0.311	0.364	0.365	0.368	0.369	0.393	0.361	0.834	0.903	0.86
EMC-BAC-2	0.556	0.472	0.16	1.14	1.19	1.26	1.17	1.13	1.06	0.994	1.1	1.02	0.998	1.05	0.948	0.944	0.994	1.01	0.581
EPLC-272H	0.597	0.273	0.155	1.25	1.07	1.15	1	1.09	0.404	0.303	0.303	0.382	0.35	0.331	0.423	0.372	0.696	0.725	0.255
H3255	0.973	0.864	0.842	0.481	0.578	0.594	0.482	0.457	0.623	0.591	0.629	0.669	0.479	0.643	0.715	0.667	0.742	0.946	1.05
HARA	0.449	0.438	0.563	1.24	1.14	1.15	1.16	1.15	0.538	0.372	0.286	0.581	0.611	0.537	0.654	0.528	0.771	0.521	0.867
HCC-15	0.812	0.816	0.801	0.746	0.731	0.716	0.716	0.693	0.618	0.694	0.553	0.623	0.659	0.677	0.67	0.654	1.01	1.13	0.946
HCC-44	1.09	1.14	1.21	0.866	0.942	1.02	0.958	0.944	0.946	0.993	1.01	0.885	0.956	0.933	0.905	0.927	–	–	–
HCC-78	0.407	0.602	0.483	0.854	0.868	0.729	0.715	0.908	0.683	0.727	0.677	0.788	0.763	0.698	0.675	0.658	0.496	0.585	0.614
HCC-366	0.473	0.372	0.231	1.15	1.04	1.02	1.03	1.16	0.366	0.407	0.415	0.353	0.369	0.367	0.352	0.517	0.93	0.858	0.895

Cell Line	relative viability ([1]; first compound 0.1 µM)	relative viability ([1]; first compound 1 µM)	relative viability ([1]; first compound 3.162 µM)	relative viability ([2]; first compound 0.02 µM)	relative viability ([2]; first compound 0.06325 µM)	relative viability ([2]; first compound 0.2 µM)	relative viability ([2]; first compound 0.6325 µM)	relative viability ([2]; first compound 2 µM)	relative viability ([3]; first compound 0.1 µM)	relative viability ([3]; first compound 1 µM)	relative viability ([3]; first compound 3.162 µM)	relative viability ([4]; first compound 0.02 µM)	relative viability ([4]; first compound 0.06325 µM)	relative viability ([4]; first compound 0.2 µM)	relative viability ([4]; first compound 0.6325 µM)	relative viability ([4]; first compound 2 µM)	relative viability (kb NB 142-70 + Foretinib; first compound 0.1 µM)	relative viability (kb NB 142-70 + Foretinib; first compound 1 µM)	relative viability (kb NB 142-70 + Foretinib; first compound 3.162 µM)
HCC-827	0.763	0.864	0.88	0.992	1.04	1.06	1.06	1.01	0.31	0.288	0.274	0.315	0.212	0.31	0.309	0.335	1.08	0.981	0.852
HOP-62	0.69	0.713	0.579	1.06	1.01	0.996	0.91	1.08	0.217	0.203	0.226	0.214	0.228	0.225	0.206	0.192	1.19	1.18	1.02
IA-LM	0.957	0.994	1.16	0.814	0.808	0.898	0.86	0.827	–	–	–	–	–	–	–	–	1.31	1.34	1.37
LC-2-ad	0.726	0.698	0.71	0.456	0.44	0.484	0.492	0.535	0.798	0.769	0.772	0.808	0.779	0.831	0.789	0.774	0.977	0.953	0.668
LCLC-97TM1	0.82	0.773	0.515	0.321	0.422	–	0.359	0.393	0.268	0.205	0.135	0.237	0.24	0.252	0.19	0.221	1.01	0.883	0.606
LCLC-103H	0.856	0.873	0.877	–	–	–	–	–	0.75	0.737	0.773	0.735	0.742	0.809	0.763	0.748	0.715	0.744	0.815
LK-2	0.417	0.279	0.219	1.02	0.862	0.961	0.853	0.757	0.37	0.282	0.195	0.283	0.268	0.249	0.319	0.278	1.15	1.07	0.819
LOU-NH91	0.915	0.913	0.601	0.74	0.755	0.722	0.673	0.804	0.83	0.854	0.61	0.836	0.829	0.816	0.849	0.84	0.898	0.889	0.829
NCI-H358	0.699	0.654	0.127	–	–	–	–	–	0.226	0.148	0.0899	0.217	0.211	0.224	0.206	0.217	0.57	0.521	0.101
NCI-H522	0.983	0.835	0.794	–	–	–	–	–	0.61	0.698	0.581	0.638	0.619	0.673	0.681	0.608	–	–	–
NCI-H650	0.514	0.585	0.363	–	–	–	–	–	0.309	0.283	0.267	0.34	0.295	0.443	0.315	0.367	1.02	1.06	0.851
NCI-H661	0.761	0.755	0.767	–	–	–	–	–	0.614	0.588	0.496	0.507	0.592	0.524	0.579	0.572	0.996	1.02	1.01
NCI-H1299	–	–	–	1.02	1.06	1.09	1.04	1.07	–	–	–	–	–	–	–	–	1.08	1.12	1.11
NCI-H1563	–	–	–	–	–	–	–	–	–	–	–	–	–	–	–	–	0.95	0.986	0.935
NCI-H1648	0.356	0.345	0.423	–	–	–	–	–	0.452	0.435	0.493	0.577	0.515	0.479	0.549	0.445	–	–	–
NCI-H1703	–	–	–	1.07	1.06	1.35	1	1.51	–	–	–	–	–	–	–	–	0.351	0.338	0.346
NCI-H1792	–	–	–	0.694	0.722	0.617	0.693	0.617	0.536	0.536	0.458	0.705	0.569	0.479	0.605	0.582	–	–	–
NCI-H2228	0.988	0.557	0.512	1.14	1.16	0.918	0.976	0.809	–	–	–	–	–	–	–	–	0.956	0.939	0.543
NCI-H2342	0.858	0.782	0.649	–	–	–	–	–	0.66	0.694	0.748	0.653	0.775	0.788	0.709	0.744	0.96	1.03	0.978
SW 900	0.597	0.593	0.388	–	–	–	–	–	0.473	0.4	0.418	0.43	0.452	0.607	0.406	0.444	1.06	1.2	0.436
